As usually defined, the Cmax is the maximum level reached in the sampled fluid or tissue.

Results on one compound are retold here after patent US20230233483A1, “COMPOUND AND METHOD FOR THE TREATMENT OF CORONAVIRUSES” (Apteeus, priority 2020, published 2023).

Molecules are shown by their SMILES. Entries after “also recorded” stand apart in the source; their conditions may differ.

For series [1], the system named is hSARS-CoV2. Nature of the series: Cytopathic effect and cell growth in TMPRSS2-transduced Vero81 cells infected with hSARS-CoV2. The class given is cell-based, SARS-CoV-2. Conditions: MOI 0.01, 72 hours. The procedure: Vero-81 cells were transduced with a lentivirus expressing TMPRSS2. TMPRSS2 was cloned into pTRIP vector, lentivectors were produced by transfection of HEK293T cells with pTRIP-TMPRSS2, phCMV-VSVG and HIV gag-pol with Turbofect™ (ThermoFischer) according to the manufacturer’s instruction. Supernatants containing lentiviral vectors were used to transduce cells. Then cells were used in experiments 72 h after the transduction.
Tested compound: solutions of the clofoctol were prepared in DMSO at concentrations required to achieve the desired concentrations in the experiment. Solutions were dispensed onto the living cells. The maximum concentration of DMSO was 0.15%. […]
The effect of clofoctol on TMPRSS2-transduced Vero81 cells infected with hSARS-CoV2 was assessed by adding a range of concentrations of clofoctol, following 1:3 dilutions, prior to infection with hSARS-CoV2 at MOI 0.01 for 72 hours. […]
(§1) The results were obtained by analyzing the percentage of PI-positive nuclei expressed as the percentage of CPE relative to a scale defined by positive (0% infected cells) and negative (100% infected cells) controls. […]
The results were obtained by analyzing the number of living cells expressed as the percentage of cell growth improvement relative to a scale defined by normal cell growth (not infected controls) and no cell growth (infected controls). […]
(Cytopathic effects are the visible damage that an infection or toxin causes in cultured cells.)

The test system of series [2] is SARS-CoV-2. It is filed as cell-based. The note with it: Vero-81 and Vero-81-TMPRSS2 cells, MOI 0.25, treatment after 1 h infection, 16 h.
Series [3] relates to SARS-CoV-2. The class given is in vivo, K18-human ACE2 expressing C57BL/6 mice. The note with it: i.p. 62.5 mg/kg 1 h and 8 h after inoculation and twice daily at day 1; day 2 post-infection.
The next series deals with hSARS-CoV-2. Nature of the series: Infected human bronchial epithelia (MucilAir), secreted virus and viral RNA. Conditions: apical administration, MOI 0.2, 72 hours. The class given is cell-based, SARS-CoV-2. The procedure: Human bronchial epithelia (MucilAir™, available from the company Epithelix) were treated through apical administration of clofoctol. The epithelia were first washed with Mucilair® culture medium containing different concentrations of clofoctol prior to infection by hSARS-CoV-2 at MOI 0.2 for 1 hour, still in the presence of clofoctol. Then, the inoculum was removed and epithelia were washed with PBS before addition at the apical pole of 25 µl of Mucilair® culture medium containing different concentrations of clofoctol. After 72 hours of incubation at 37° C., 200 µl of MucilAir™ culture medium was added at the apical pole of the epithelia and harvested, after incubating for 5 minutes. These supernatants were used to quantify the amount of secreted virus as assessed by TCID50. The results are shown in FIG. 15 in which the dotted line represents the limit of detection […]. In addition, total RNAs were extracted by using the Nucleospin RNA kit (Macherey-Nagel) prior to genome quantification by RT-qPCR. The data in both FIGS. 15 and 16 represent the average and standard-deviation of technical triplicates (n=3).

For series [4] the following is noted: read-out: Cmax in human lung tissue; patients undergoing pulmonary resection or pneumonectomy, clofoctol administered before or during surgery; cited from earlier work.
Series [5] relates to hSARS-CoV2. Description: Cytopathic effect and cell growth in Vero81 cells infected with hSARS-CoV2. It is filed as cell-based, SARS-CoV-2. Conditions: MOI 0.01, 72 hours. How it is done: Vero cells [ATCC® CCL-81™, ECACC, Sigma-Aldrich, France, hereafter “Vero81” cells] were cultured in Dulbecco’s modified Eagle medium (DMEM) supplemented with 10% fetal bovine serum (FBS) and GlutaMAX™ in a humidified atmosphere of 5% CO2 at 37° C.
Tested compound: solutions of the clofoctol were prepared in DMSO at concentrations required to achieve the desired concentrations in the experiment. Solutions were dispensed onto the living cells. The maximum concentration of DMSO was 0.15%.
Cell infection: cells were infected after addition of clofoctol at various concentrations or control solvents. The multiple of infection was 0.01. […]
The effect of clofoctol on Vero81 cells infected with hSARS-CoV2 was assessed by adding a range of concentrations of clofoctol, following 1:3 dilutions, prior to infection with hSARS-CoV2 at MOI 0.01 (Multiple Of Infection (MOI) 0.01 means that the amount of virus used is 0.01 per 1 cell) for 72 hours. […]
as §1
The effect of clofoctol on Vero81 cells infected with hSARS-CoV2 was assessed by adding a range of concentrations of clofoctol, following 1:3 dilutions, prior to infection with hSARS-CoV2 at MOI 0.01 for 72 hours. […]

The test system of series [6] is hSARS-CoV2. Nature of the series: Viral genomic replication (RT-qPCR) in Vero81 and TMPRSS2-transduced Vero81 cells. It is filed as cell-based, SARS-CoV-2. How it is done:
Cell culture: Vero81 cells and Vero-81 cells transduced with TMPRSS2 were cultured in Dulbecco’s modified Eagle medium (DMEM) supplemented with 10% fetal bovine serum (FBS) and GlutaMAX™ in a humidified atmosphere of 5% CO2 at 37° C.
Tested compound: solutions of clofoctol were prepared in DMSO at concentrations required to achieve the desired concentrations in the experiment. Solutions were dispensed onto the living cells. The maximum concentration of DMSO was 0.15%.
Cell infection: cells were infected after addition of clofoctol at various concentrations or control solvents. The multiple of infection was 0.25. […]
RNA dosing: after 6 hours of incubation, total cellular RNA was extracted by using the Nucleospin RNA kit (Macherey-Nagel) as recommended by the manufacturer and SARS-CoV-2 genome were measured by quantitative RT-PCR. […] Primers and probe (WHO protocol) targeting the open reading frame for the E gene were used. […]
The effect of clofoctol on Vero81 and TMPRSS2-transduced Vero81 cells infected with hSARS-CoV2 was assessed by adding a range of concentrations of clofoctol, following 1:2,5 dilutions, prior to infection with hSARS-CoV2 at MOI 0.25 for 6 hours. […]
Results were obtained by dosing viral RNA and the viral load was expressed as the ratio of the viral RNA on the total RNA (RNAt) of the sample. […]
For orientation: In qPCR the cycle at which signal appears reflects the starting amount.

The test system of the next series is HCoV-229E-Rluc. The class given is cell-based. Conditions: Huh-7 cells, 7h post-infection.
Series [7] can be described thus: Pharmacokinetics in C57BL/6J mice, plasma and lung concentration. The class given is in vivo. Conditions: i.p. 62.5 mg/kg single dose or twice daily for two days. How it is done:
Clofoctol diluted in 1.75% final Kolliphor® RH40 (07076, Sigma) and 1.4% final ethanol in a sodium chloride solution was used for intraperitoneal injection. Female 8-10 week-old C57BL/6J mice were treated i.p. with a single dose of clofoctol (62.5 mg/kg) and were sacrificed at different time points thereafter (FIG. 9, left panel). In a separate experiment, the mice were treated i.p. twice daily with a dose of clofoctol (62.5 mg/kg) for two days, and the mice were sacrificed 1 h after the last injection (FIG. 9, right panel). The concentration of clofoctol in the plasma and lung of treated mice was measured as follows: plasma samples and lung tissues were collected and treated with absolute ethanol, in a ratio of 1 to 10 and 1 to 50, respectively. Lung tissues were homogenized with a mechanical lysis system (Tissue Lyzer II). Supernatants were obtained by centrifugation before injection in LC-MS/MS. Samples were analysed using UPLC system Acquity I Class (Waters), combined with a triple quadrupole mass spectrometer Xevo TQD (Waters). The column, placed at 40° C., was an Acquity BEH C8 50*2.1 mm, 1.7 µm column (Waters) and the following mobile phases were used: 5 mM ammonium formate pH 3.75 in water, as solvent (A) and 5 mM ammonium formate pH 3.75 in acetonitrile as solvent (B). […]

The subject of series [8] is SARS-CoV-2. It is filed as cell-based. Conditions: Calu-3 cells, MOI 0.25, 24 h.

In the case of `CC(C)(C)CC(C)(C)c1ccc(O)c(Cc2ccc(Cl)cc2Cl)c1` [clofoctol, 2-(2,4-Dichlorobenzyl)-4-(1,1,3,3-tetramethylbutyl)phenol], the “IC95 of the CPE (percentage of PI-positive nuclei)” value in the series on hSARS-CoV2 [1] turned out to be 8.7 µM. In addition, the “EC95 (cell growth improvement)” value with hSARS-CoV2 [1] (estimated) was about 25 µM. Besides, the “Secreted infectious virus (TCID50) in supernatants” value with SARS-CoV-2 [2] is reported as “inhibits the secretion of hSARS-CoV-2 by infected cells; also recorded: SARS-CoV-2 load decreases as the concentration of clofoctol increases”. In the series with SARS-CoV-2 [3], the “SARS-CoV-2 infection in mice (lung viral load by titration and RT-qPCR)” value is “significantly reduces SARS-CoV-2 infection in mice”. Besides, the “Factor of reduction of virus titer in the mucus of human bronchial epithelium (TCID50)” value in the series with hSARS-CoV-2 (30 µM) is listed as “more than 100”. Moreover, the “Viral RNA quantitation (RT-qPCR) in human bronchial epithelia” value in the series with hSARS-CoV-2 (not normalized) is on record as “decrease of viral RNA quantitation”. Further, the highest concentration (Cmax) in [4] was about 250 µM. For the same compound, the “IC95, concentration reducing 95% of the CPE (percentage of PI-positive nuclei)” value in the series with hSARS-CoV2 [5] is on record as 9.2 µM. The “EC95, concentration at which 95% of maximum response is observed (cell growth improvement)” value in the series on hSARS-CoV2 [5] (estimated) is about 21 µM. For the same compound, the “IC95 of viral load (ratio of viral RNA on total RNA)” value in the series with hSARS-CoV2 [6] (Vero81 and TMPRSS2-transduced Vero81 cells, MOI 0.25, 6 hours) is listed as 11 µM. For the same compound, in the series on hSARS-CoV2 [6] (Vero-81 and Vero-81-TMPRSS2 cells, MOI 0.25, 6 h, increasing concentrations), the “Genomic replication of SARS-CoV-2 (viral RNA by RT-qPCR, normalized to total RNA)” value was “inhibits the replication of hSARS-CoV2 in infected cells; also recorded: inhibits the genomic replication of SARS-CoV-2”. Moreover, in the series on HCoV-229E-Rluc, the “Activity against HCoV-229E (luciferase activity, percentage of control)” value is reported as “active against HCoV-229E”. Besides, the “Distribution in lungs (concentration in plasma and lung)” value in series [7] is “distributed in lungs at very significant levels”. Moreover, the “SARS-CoV-2 replication (viral RNA by RT-qPCR)” value in the series with SARS-CoV-2 [8] was “inhibits SARS-CoV-2 replication in Calu-3 cells”.
